Among the test systems are HCT-116; SF-295; HCT-15; ACHN; OVCAR-3; SW-620; SK-MEL-5; SK-MEL-2; A549; U-251; A498; PC-3; SR; HOP-92; DU-145; MOLT-4; RPMI-8226; HCC 2998; IGROV-1; UO-31.
Assay in all cases: inhibition of tumour cell growth, NCI panel, 48 h

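Five compound concentrations were applied to cells in 96-well plates for 48 hours; endpoints were derived by simple linear interpolation of the resulting dose-response curve. GI50 = concentration required for 50% inhibition of growth.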 Activity calls are given as the source filed them. Cut-off read from the data, not from the text of the source: active = GI50 up to about 1.1 µM and inactive = higher.

These results are taken from ChEMBL document CHEMBL1201862, “PubChem BioAssay data set” (2004).

Turning to `Cc1cccc2c(=O)c3c(O)cc(O)cc3n(C)c12`, the GI50 is > 100 µM (inactive) in the assay with HCT-116; > 100 µM (inactive) in the assay on SF-295; more than 100 µM in the assay on HCT-15; > 100 µM (inactive) in the assay on ACHN; > 100 µM (inactive) with OVCAR-3; > 100 µM (inactive) in the assay with SW-620. For the same compound, the GI50 in the assay with SK-MEL-5 is > 100 µM (inactive); in the assay on SK-MEL-2, > 100 µM (inactive); in the assay with A549 it was > 100 µM (inactive); with U-251, > 100 µM (inactive); in the assay on A498, 7.29 µM (inactive); in the assay with PC-3, > 100 µM (inactive). In addition, the GI50 is > 100 µM (inactive) in the assay on SR; 91.4 µM (inactive) in the assay with HOP-92; > 100 µM (inactive) in the assay with DU-145; > 100 µM (inactive) in the assay on MOLT-4; > 100 µM (inactive) in the assay with RPMI-8226; > 100 µM (inactive) with HCC 2998. Besides, the GI50 in the assay with IGROV-1 is > 100 µM (inactive).
As for `Cc1c(C)c(C)c(-n2c(=O)n(C)c(=O)n2-n2c(=O)n(C)c(=O)n2-c2c(C)c(C)c(C)c(C)c2C)c(C)c1C`, the GI50 with HCT-116 is > 100 µM (inactive); in the assay on HCT-15, more than 100 µM; in the assay on OVCAR-3, > 100 µM (inactive); in the assay on SW-620 it was > 100 µM (inactive); in the assay on SK-MEL-5 it was > 100 µM (inactive); in the assay on SK-MEL-2, > 100 µM (inactive). For the same compound, the GI50 in the assay with A549 was > 100 µM (inactive); with U-251, > 100 µM (inactive); with A498, > 100 µM (inactive); in the assay on PC-3 it was > 100 µM (inactive); in the assay with SR, 20.5 µM (inactive); in the assay with UO-31, > 100 µM (inactive). The GI50 in the assay on HOP-92 was > 100 µM (inactive); in the assay on DU-145, > 100 µM (inactive); with MOLT-4 it was 40 µM (inactive); in the assay on RPMI-8226 it was > 100 µM (inactive); in the assay with HCC 2998, > 100 µM (inactive); with IGROV-1, 51.5 µM (inactive).
On to `Cc1cc(S(=O)(=O)Nc2n[nH]c(-c3ccc(Cl)cc3)n2)c(SSc2cc(Cl)c(C)cc2S(=O)(=O)Nc2n[nH]c(-c3ccc(Cl)cc3)n2)cc1Cl`, for which the GI50 with HCT-116 was 28.5 µM (inactive); with SF-295, 31.7 µM (inactive); with HCT-15, 25.1 µM; in the assay with ACHN, 32.1 µM (inactive); in the assay with OVCAR-3 it was 28.3 µM (inactive); in the assay on SW-620, 24.8 µM (inactive). Besides, the GI50 in the assay with SK-MEL-5 is 33.2 µM (inactive); with A549, 41.5 µM (inactive); with U-251, 25.2 µM (inactive); with A498 it was 24.6 µM (inactive); in the assay with PC-3 it was 29.2 µM (inactive); in the assay on SR, 25.5 µM (inactive). In addition, the GI50 in the assay on UO-31 is 29.4 µM (inactive); with HOP-92, 25.1 µM (inactive); in the assay on DU-145 it was 32.1 µM (inactive); in the assay on MOLT-4, 25.8 µM (inactive); with RPMI-8226 it was 37.2 µM (inactive); in the assay with HCC 2998, 19.6 µM (inactive). In addition, the GI50 in the assay on IGROV-1 is 22 µM (inactive).
Take `Cc1nc2ccc(F)cc2c(Cl)c1CCCl`: the GI50 in the assay on HCT-116 is 26 µM (inactive); with SF-295, 51.1 µM (inactive); with HCT-15 it was 34.3 µM; in the assay with ACHN, 78.7 µM (inactive); in the assay with OVCAR-3 it was 42.3 µM (inactive); in the assay with SW-620, 39.5 µM (inactive). Besides, the GI50 in the assay with SK-MEL-5 is 22 µM (inactive); in the assay with A549, 42.3 µM (inactive); in the assay on U-251, 30.4 µM (inactive); in the assay on A498, 63.1 µM (inactive); with PC-3, 44.4 µM (inactive); with SR, 19.9 µM (inactive). The GI50 in the assay with UO-31 is 73.1 µM (inactive); in the assay on HOP-92, 36 µM (inactive); with DU-145, 44.8 µM (inactive); in the assay on MOLT-4 it was 21.3 µM (inactive); in the assay on RPMI-8226, 42.8 µM (inactive); with HCC 2998, 33.4 µM (inactive). Moreover, the GI50 in the assay with IGROV-1 was 59.8 µM (inactive).
Regarding `CCN(CC)CCn1c2cc3c(cc2c(=O)c2cccnc21)OCO3`, the GI50 was 4.79 µM (inactive) in the assay with HCT-116; 4.71 µM (inactive) in the assay with SF-295; 3.72 µM with HCT-15; 3.52 µM (inactive) with ACHN; 5.14 µM (inactive) in the assay with OVCAR-3; 4.26 µM (inactive) in the assay with SW-620. The GI50 with SK-MEL-5 is 2.77 µM (inactive); in the assay on SK-MEL-2, 9.91 µM (inactive); in the assay on A549, 5.11 µM (inactive); with U-251, 6.65 µM (inactive); in the assay on A498 it was 3.91 µM (inactive); with PC-3 it was 7.43 µM (inactive). Also, the GI50 in the assay on SR was 4.34 µM (inactive); in the assay on HOP-92, 6.95 µM (inactive); in the assay on DU-145, > 10 µM (inactive); in the assay on MOLT-4, 3.68 µM (inactive); with RPMI-8226 it was 3.93 µM (inactive); with HCC 2998, 9.04 µM (inactive). In addition, the GI50 with IGROV-1 was 4.88 µM (inactive).
On to `O=S(=O)(O)c1ccc2cc(/N=N/c3c(O)ccc4ccccc34)ccc2c1`, for which the GI50 with HCT-116 was > 100 µM (inactive); in the assay with SF-295, > 100 µM (inactive); with HCT-15 it was more than 100 µM; in the assay on ACHN it was > 100 µM (inactive); in the assay on OVCAR-3, > 100 µM (inactive); with SW-620, > 100 µM (inactive). Also, the GI50 with SK-MEL-5, with SK-MEL-2, in the assay on A549, in the assay with U-251, in the assay on A498 and with PC-3 was > 100 µM (inactive) throughout. Moreover, the GI50 with SR, in the assay on UO-31, with HOP-92, with DU-145, with MOLT-4 and in the assay with HCC 2998 was > 100 µM (inactive) throughout. Besides, the GI50 in the assay on IGROV-1 is > 100 µM (inactive).
Take `C/C(=N\NC(=S)NCCCCNC(=S)N/N=C(\C)c1ccccn1)c1ccccc1`: the GI50 is 0.331 µM (active) in the assay on HCT-116; 0.982 µM (active) in the assay with SF-295; 0.484 µM in the assay with HCT-15; 0.601 µM (active) in the assay on ACHN; 0.424 µM (active) in the assay on OVCAR-3; 0.714 µM (active) with SK-MEL-5. Moreover, the GI50 in the assay on SK-MEL-2 was 6.71 µM (inactive); with A549, 1.66 µM (inactive); in the assay on U-251, 0.962 µM (active); in the assay on A498, 3.05 µM (inactive); with PC-3 it was 3.02 µM (inactive); in the assay with SR, 0.317 µM (active). Also, the GI50 is 0.635 µM (active) with UO-31; 1.55 µM (inactive) in the assay on HOP-92; 0.979 µM (active) in the assay on DU-145; 0.556 µM (active) in the assay on MOLT-4; 1.35 µM (inactive) in the assay on RPMI-8226; 1.66 µM (inactive) in the assay on HCC 2998. For the same compound, the GI50 in the assay with IGROV-1 is 0.736 µM (active).
With `CC(=O)O[C@H]1C(=O)N(c2cc3c4ccccc4ccc3c3ccccc23)[C@@H]1c1ccccc1`, the GI50 in the assay with HCT-116 is 3.21 µM (inactive); in the assay with SF-295, 3.64 µM (inactive); with HCT-15, 3.85 µM; in the assay on ACHN, 6.38 µM (inactive); with OVCAR-3, 1.71 µM (inactive); in the assay with SK-MEL-5, 3.24 µM (inactive). For the same compound, the GI50 with SK-MEL-2 is 2.65 µM (inactive); in the assay on A549, 4.56 µM (inactive); in the assay with U-251, 7.33 µM (inactive); in the assay on A498, 21.8 µM (inactive); in the assay on PC-3, 7.82 µM (inactive); in the assay on SR, 1.6 µM (inactive). Also, the GI50 in the assay with UO-31 was 11.2 µM (inactive); in the assay on HOP-92, 17.5 µM (inactive); with DU-145 it was 14.5 µM (inactive); with MOLT-4, 7.69 µM (inactive); with RPMI-8226 it was 2.23 µM (inactive); in the assay on HCC 2998, 5.04 µM (inactive). Also, in the assay on IGROV-1, the GI50 was 2.11 µM (inactive).
With `C=C1[C@H](OCC(C)C)[C@@H](OCC(C)C)[C@@H](O)C(C)(C)/C=C/[C@H](C)C(=O)[C@@]2(O)C[C@H](C)[C@H](O)[C@@H]2[C@H]1OCC(C)C`, the GI50 was > 7.5 µM (inactive) with HCT-116; 2.51 µM (inactive) with SF-295; 6.92 µM in the assay with HCT-15; > 7.5 µM (inactive) in the assay on ACHN; > 7.5 µM (inactive) in the assay on OVCAR-3; 7.38 µM (inactive) with SW-620. The GI50 with SK-MEL-5 is 7.18 µM (inactive); with SK-MEL-2, > 7.5 µM (inactive); in the assay with U-251, > 7.5 µM (inactive); in the assay with A498 it was 3.23 µM (inactive); in the assay on PC-3 it was > 7.5 µM (inactive); with SR, > 7.5 µM (inactive). Moreover, the GI50 in the assay with UO-31 was 6.52 µM (inactive); in the assay on HOP-92, > 7.5 µM (inactive); in the assay with DU-145, > 7.5 µM (inactive); in the assay with MOLT-4, 0.676 µM (active); in the assay with HCC 2998 it was > 7.5 µM (inactive).
In the case of `COc1ccc(C2NC(=S)Nc3c2c(=O)oc2c3ccc3ccccc32)cc1` (configuration not stated), the GI50 with HCT-116 is 78.2 µM (inactive); in the assay on SF-295, 59.3 µM (inactive); with HCT-15, 53.7 µM; with ACHN it was 67.6 µM (inactive); in the assay on OVCAR-3, > 100 µM (inactive); with SW-620, > 100 µM (inactive). Also, the GI50 is > 100 µM (inactive) with SK-MEL-5; 44.1 µM (inactive) in the assay with SK-MEL-2; 52.1 µM (inactive) in the assay on A549; 40.6 µM (inactive) in the assay on U-251; 38.9 µM (inactive) in the assay with A498; 54.7 µM (inactive) in the assay with PC-3. Moreover, the GI50 is 48.4 µM (inactive) in the assay with SR; 77.1 µM (inactive) in the assay with UO-31; 41.8 µM (inactive) in the assay on HOP-92; > 100 µM (inactive) with DU-145; 73.5 µM (inactive) with MOLT-4; 47.6 µM (inactive) in the assay on RPMI-8226. For the same compound, the GI50 in the assay with IGROV-1 is > 100 µM (inactive).
